Where two headings read alike, the source gives them in different places.
What was measured:
[1] = system: S. mansoni schistosomula; parameters: method as in PMID 19597541, PMID 20668553; conditions: cited from earlier work
[2] = system: Pyoellii; parameters: method as in ChEMBL; conditions: reported by Novartis in Science paper; ref ChEMBL; cited from earlier work
[3] = system: P. falciparum; parameters: method as in Pubchem; conditions: ref Pubchem; cited from earlier work
[4] = system: TRPC4; parameters: method as in ChEMBL; conditions: ref ChEMBL; cited from earlier work
[5] = system: TrxR1; parameters: method as in ChEMBL; conditions: ref ChEMBL; cited from earlier work
[6] = system: Cyp3A4; parameters: method as in ChEMBL; conditions: ref ChEMBL; cited from earlier work
[7] = system: Cyp2C19; parameters: method as in ChEMBL; conditions: ref ChEMBL; cited from earlier work
[8] = system: S. mansoni juvenile worms; test: Juvenile worm assay (3 week old worms), single point and dose response; type: cell-based; conditions: Schistosoma mansoni
Procedure: (§1) For production of S. mansoni juvenile or adult worms, mice were infected subcutaneously under mild isoflurane (Merial Animal Health Ltd (UK)) anaesthesia with, respectively 1400 (for juveniles) or 450 cercariae (for adults). Worms were recovered from infected mice using sterile techniques by portal perfusion 3 weeks (for juveniles) or 6 weeks (for adults) post-infection using warm perfusion medium (Dulbecco’s Modified Eagle’s Medium [DMEM], 2mM L-glutamine, 100 Units/ml penicillin, 100μg/ml streptomycin, 20mM Hepes, 10 Units/ml heparin [Sigma, UK] [8]. Adult worms were washed free of red blood cells using the perfusion medium, and finally placed in culture in complete medium (cDMEM: DMEM, 2mM L-glutamine, 100 Units/ml penicillin, 100μg/ml streptomycin, 10% foetal calf serum (FCS) at 37°C, in an atmosphere of 5% CO2. Juvenile worms were sedimented successively following washing with cold perfusion medium and then suspended in cold cDMEM until dispensed to avoid attachment to the plastic tubes.
(§2) For the juvenile assay the concentration of worms was adjusted to 40/ml cDMEM and, prior to dispensing, the suspension was cooled on ice to prevent adherence of the worms to the plastic bottles. After swirling to resuspend worms,150μL of suspension was added to the wells of 96 well microtitre plates (Nunc, Thermo Fisher Scientific, UK). Wells were quickly checked and those with <5 worms were marked. The remainder were made up to 200μL and the deficient wells topped up with a worm suspension to ensure that all wells had ≥5 worms. The adult worm assay was as described in [8] except that 1ml cultures containing 3 worm pairs were generally used. Both the juvenile and adult worm assays were assessed for activity on days +1 and +5. Drug effects were determined by assessing the viability of individual worms and calculating the mean percentage inhibition, a hit being defined as ≥70% reduction in viability.
(§3) The primary HTS and subsequent juvenile and adult screens were run as single point (SP) assays at 10–12.5μM depending on the concentrations in the compound collections. Compounds were tested in duplicate. Where necessary, repeat testing was carried out on re-supplied liquid samples. All compounds of interest were re-tested as solid compounds or by repeat synthesis and activity confirmed.
(§4) Compounds with activity against all three parasite stages were tested in parallel dose response (DR) assays against juvenile worms and MRC-5 cells. Promising compounds were then tested in the adult DR. For the parasite DR (larvae, juveniles and adults) the concentrations tested were two fold dilutions starting from 2x the primary screening concentrations (i.e. 20–25μM).
(§5) IC50 values were calculated from the drug concentration–response curves using Microsoft XLfit version 5.1.0.0 (2006–2008 ID Business Solutions Ltd). Results were expressed as the geometric mean IC50.

[9] = system: S. mansoni schistosomula; test: Larval HTS and larval dose response (image-based phenotype and motility of schistosomula); type: cell-based, Schistosoma mansoni; parameters: Motility score: scale not given here; conditions: 10μM control wells, -AMP-B
[10] = Cytotoxicity assay (Alamar blue); type: cell-based; conditions: human, MRC5 CC50
Procedure: Activity against mammalian cells was determined using MRC-5 cells. Cells were maintained in Minimum Essential Medium supplemented with glutamax (Gibco, UK), 1% non-essential amino acids (Gibco, UK) and 10% Foetal bovine serum (Gibco, UK). They were harvested by treatment with 0.25% Trypsin-EDTA for 3 minutes and diluted to 1x10^5/ml. 100μl aliquots of the cell suspension were then plated in 96 well plates (Nunc, Thermo Fisher Scientific, UK). The plates were left to incubate for 24 hours at 37°C and 5% CO2 in a humidified incubator. Cytotoxicity DR assays were set up 24 hours post incubation at 5% CO2 and 37°C, with compounds prepared at 3-fold dilutions starting from 50μM. Dilutions were added to the cells such that the final % DMSO/well was 0.5%. Each drug concentration was tested in duplicate. On each 96 well plate there were negative control wells of media only, MRC-5 cells only and MRC-5 cells with 0.5% DMSO. For positive control wells doxorubicin hydrochloride (Sigma-Aldrich, UK) was added to the cells at 100μM concentration. The cultures were then maintained for a further 72 hours at 37°C and 5% CO2. Drug cytotoxicity was determined using the redox indicator Alamar blue (AbD Serotec, UK). 10μl of Alamar Blue was added to each well and the plates incubated for 4 hours at 37°C and 5% CO2 atmosphere. The fluorescence intensity was measured using a Spectramax Gemini plate reader (Molecular Devices, UK) using an excitation wavelength of 530 nm and an emission wavelength of 580 nm.
as §5

[11] = system: S. mansoni schistosomula; test: Larval HTS and larval dose response (image-based phenotype and motility of schistosomula); type: cell-based, Schistosoma mansoni; parameters: Motility score: scale not given here; conditions: for Motility score / Phenotype score: 10μM control wells
Procedure: Experiments were performed using the Puerto Rican strain of S. mansoni maintained in Biomphalaria glabrata and CD1 mice. The strain of snail was one bred by Prof Mike Doenhoff (Nottingham University) for high susceptibility to S. mansoni and ease of breeding in large numbers to high density. Careful attention was paid to controlling infections with rotifers which otherwise would contaminate the HTS schistosomula preparations as well as affecting snail viability. This included recovery of egg masses on short length pieces of polypropylene tubing placed into the breeding tanks and treatment of these with 3 x 10 seconds immersion in 70% ethanol with 3 minutes soaking in clean water in between alcohol treatments. Schistosomula were mechanically prepared as previously described with the modification of using a 45% and 70% Percoll gradient, and the cercarial heads recovered from the 70% layer. All centrifugation steps were done at 350x g. The schistosomula generated were then incubated overnight in M169 supplemented with 100U/ml Penicillin, 300μg/ml Streptomycin, 0.25μg/ml Fungizone (Amphotericin B) (Gibco, UK) and 5% Foetal Calf serum.
The larval HTS was run as described previously. Compound libraries were provided in 384 well plates as liquid either (i) small volumes in polypropylene 384 V-bottom storage plates (Greinerbio-one) that were diluted and 500nL dispensed into black 384 imaging plates (ViewPlate 6007460; PerkinElmer) using the Biomek FxP (Beckman Coulter) or (ii) in an assay-ready format from which a 40nL volume was transferred into wells of imaging plates. […] Therefore, to prevent fungal contamination 0.25μg/ml (0.27μM) of amphotericin B (AMP-B) was added to cultures both during the overnight culture prior to plating and during the 3 day assay.
The primary HTS and subsequent juvenile and adult screens were run as single point (SP) assays at 10–12.5μM depending on the concentrations in the compound collections. Compounds were tested in duplicate. Where necessary, repeat testing was carried out on re-supplied liquid samples.
as §4, §5

[12] = system: S. mansoni adult worms; test: Adult worm assay, single point and dose response; type: cell-based; conditions: Schistosoma mansoni
Procedure: as §1, §2, §3, §4, §5

[13] = Enamine library plates, negative control adjusted to zero
[14] = GSK library plates, negative control adjusted to zero
[15] = Pfizer library plates, negative control adjusted to zero

Question: For `C[C@@H]1[C@H](O)[C@@H](C)/C=C/C=C/C=C/C=C/C=C/C=C/C=C/[C@H](O[C@@H]2O[C@H](C)[C@@H](O)[C@H](N)[C@@H]2O)C[C@@H]2O[C@](O)(C[C@@H](O)C[C@@H](O)[C@H](O)CC[C@@H](O)C[C@@H](O)CC(=O)O[C@H]1C)C[C@H](O)[C@H]2C(=O)O` [AMP-B, amphotericin B], which “concentrations reported to have lethal activity” value [1] is on record?
Answer: 1 to 10 µM

Question: With `c1ccc(-c2cc(N3CCN(c4ccccn4)CC3)nc(-c3ccccn3)n2)nc1` [CHEMBL579352] as the compound, how does the “activity vs Pyoellii” value [2] read?
Answer: 17.5 nM

Question: And the “activity vs two Pfalciparum strains” value [3]?
Answer: < 100 nM

Question: With `CCOC(=O)C1CCN(C(c2ccccn2)c2c(C)[nH]c3ccccc23)CC1` (stereo not drawn) [CHEMBL1390809] as the compound, how does the “activity as an activator of TRPC4” value [4] read?
Answer: 5 to 10 µM

Question: And the “activity vs TrxR1” value [5]?
Answer: 1.5 µM

Question: Which results are given for `Cc1[nH]c2ccccc2c1C(c1ccccn1)N1CCC(C)CC1` (stereo not drawn) [CHEMBL1517121]?
Answer: AC50 [6]: 2000 nM; AC50 [7]: 13000 nM

Question: Which inhibition at 12.5 µM ([8]; 24 h, day 1, read-out: Juvenile (% motility reduction) DAY 1) does the source give for `O=C(C1CCCCC1)N1CC(=O)N2CCc3ccccc3C2C1` (stereo not drawn) [Praziquantel] here?
Answer: 57%

Question: And the inhibition at 12.5 µM ([8]; 120 h, day 5, read-out: Juvenile (% motility reduction) DAY 5)?
Answer: 58.4%

Question: What about the EC50 ([8]; first value of cell, geometric mean, * n = 1) of the same compound?
Answer: 4700 nM

Question: And the Motility score [9]?
Answer: -0.53 ± 0.10

Question: And the Phenotype score [9]?
Answer: -0.21 ± 0.12

Question: What about the CC50 at 72 h [10] of the same compound?
Answer: > 50000 nM

Question: What about the Motility score ([11]; +AMP-B (0.25μg/ml)) of the same compound?
Answer: -0.57 ± 0.10

Question: And the Phenotype score ([11]; +AMP-B (0.25μg/ml))?
Answer: -0.38 ± 0.08

Question: What about the Motility score [11, 13] of the same compound?
Answer: -0.52 ±0.08

Question: And the Phenotype score [11, 13]?
Answer: -0.35 ±0.09

Question: What about the Motility score [11, 14] of the same compound?
Answer: -0.67 ±0.12

Question: And the Phenotype score [11, 14]?
Answer: -0.50 ±0.10

Question: What about the Phenotype score ([11]; MMV library plates, mean ±SD, negative control adjusted to zero) of the same compound?
Answer: -0.37 ±0.09

Question: And the Motility score ([11]; MMV library plates, negative control adjusted to zero)?
Answer: -0.57 ±0.10

Question: What about the Motility score [11, 15] of the same compound?
Answer: -0.63 ±0.07

Question: And the Phenotype score [11, 15]?
Answer: -0.37 ±0.04

Question: What about the EC50 ([11]; Schistosoma mansoni, 72 h, 3 day assay, geometric mean) of the same compound?
Answer: 1900 nM

Question: What about the inhibition at 12.5 µM ([12]; 24 h, day 1, read-out: Adult % motility reduction DAY 1) of the same compound?
Answer: 76%

Question: And the inhibition at 12.5 µM ([12]; 120 h, day 5, read-out: Adult % motility reduction DAY 5)?
Answer: 88%

Question: What about the EC50 ([12]; first value of cell, * n = 1) of the same compound?
Answer: 300 nM
